Data taken from patent publication US8207182B2, “Substituted cyclic urea derivatives and the use thereof as vanilloid receptor 1 modulators” (Gruenenthal GmbH, priority 2005, dated 2012).
pIC50: −log10 of the molar value.

Target: T1, vanilloid receptor 1 (VR1/TRPV1) (Rattus norvegicus, UniProt O35433)
T1 construct: from tissue; host or cells: primary cells dissociated from rat dorsal root ganglia (DRGs), cultured for two to three days
Experiment: Functional investigation on the vanilloid receptor 1 (FLIPR Ca2+ influx assay, capsaicin)
Format: cell-based
Settings: rat dorsal root ganglia cells, Fluo-4 FLIPR, 100 nM capsaicin
Excerpt: I. Functional Investigation on the Vanilloid Receptor 1 (VRI/TRPV1 Receptor)
The agonistic or antagonistic action of the substances to be investigated on the vanilloid receptor 1 (VR1/TRPV1) of the species rat can be determined using the following assay. According to this assay, the Ca^2+ influx through the receptor channel is quantified with the aid of a Ca^2+-sensitive dye (Type Fluo-4, Molecular Probes Europe BV, Leiden Netherlands) in a fluorescent imaging plate reader (FLIPR, Molecular Devices, Sunnyvale, USA).
Complete medium: 50 mL of HAMS F12 Nutrient Mixture (Gibco Invitrogen GmbH, Karlsruhe, Germany) with
10% by volume of FCS (fetal calf serum, Gibco Invitrogen GmbH, Karlsruhe, Germany, heat-inactivated);
2 mM L-glutamine (Sigma, Munich, Germany);
1% by weight of AA solution (antibiotic/antimycotic solution, PAA, Pasching, Austria) and 25 ng/mL of Medium NGF (2.5 S, Gibco Invitrogen GmbH, Karlsruhe, Germany) […]
The DRGs are in each case repeatedly suspended, drawn through No. 1, No. 12 and No. 16 needles by means of a syringe and transferred to 50 mL Falcon tubes and these are filled to 15 mL with complete medium. […] The resulting pellet is in each case taken up in 250 μL of complete medium and the cell count is determined. […]

T1 sequence (O35433 whole entry): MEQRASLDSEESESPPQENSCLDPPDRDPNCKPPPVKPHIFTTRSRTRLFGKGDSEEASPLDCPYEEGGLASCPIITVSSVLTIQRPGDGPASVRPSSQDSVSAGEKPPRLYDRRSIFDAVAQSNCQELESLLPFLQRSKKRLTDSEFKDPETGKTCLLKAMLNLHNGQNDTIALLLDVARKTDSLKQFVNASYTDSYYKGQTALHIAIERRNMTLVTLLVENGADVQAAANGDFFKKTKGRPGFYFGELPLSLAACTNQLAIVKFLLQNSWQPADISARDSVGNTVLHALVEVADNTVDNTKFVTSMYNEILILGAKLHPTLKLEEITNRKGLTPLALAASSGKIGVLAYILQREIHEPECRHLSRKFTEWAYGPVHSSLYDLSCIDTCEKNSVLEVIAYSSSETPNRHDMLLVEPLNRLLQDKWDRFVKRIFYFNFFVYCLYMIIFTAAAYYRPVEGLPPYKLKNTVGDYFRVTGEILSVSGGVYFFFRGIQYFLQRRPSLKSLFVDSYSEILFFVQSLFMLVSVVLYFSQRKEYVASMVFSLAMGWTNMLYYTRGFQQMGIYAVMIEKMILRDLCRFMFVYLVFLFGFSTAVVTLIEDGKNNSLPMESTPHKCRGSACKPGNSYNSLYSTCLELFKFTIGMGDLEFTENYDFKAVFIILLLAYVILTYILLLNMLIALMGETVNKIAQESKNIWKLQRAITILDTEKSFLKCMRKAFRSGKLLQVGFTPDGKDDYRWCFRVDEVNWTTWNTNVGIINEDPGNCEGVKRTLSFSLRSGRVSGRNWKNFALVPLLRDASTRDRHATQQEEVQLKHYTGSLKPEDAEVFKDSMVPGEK

SMILES	pIC50
CC(C)(C)c1ccc(CN2CCN(Cc3ccc(NS(C)(=O)=O)cc3)C2=O)cc1 [Example 4, N-{4-[3-(4-tert-butylbenzyl)-2-oxoimidazolidin-1-ylmethyl]-phenyl}methanesulfonamide]	5.03
CC(C)(C)c1ccc(CN2CCCN(Cc3ccc(NS(C)(=O)=O)cc3)C2=O)cc1 [Example 5, N-{4-[3-(4-tert-butylbenzyl)-2-oxotetrahydropyrimidin-1-ylmethyl]-phenyl}methanesulfonamide]	5.54
